Data set [1] in a line: Plasma concentrations by HPLC with fluorescence detection. Type of data set: in vivo, human. The settings on record: for concentration at 28 day: human, plasma, oral, 75 mg tid, 12 subjects, about 1 month of 75 mg tid; for Plasma concentrations: individual subjects, sampling day 27-30, midostaurin 75 mg tid. How it is done: (§1) Therefore, the tumour tissue was frozen and cut into as small as possible pieces with a scalpel. The pieces were weighed, added to 1 ml of water, vortexed and thereafter treated like plasma. The assay for plasma samples was validated with acceptable calibration curves, within-study variability and total recovery. […] Due to limited availability of tumour tissue, the within-study validation for tumour assay was not performed.

Data set [2] in a line: Tumour tissue concentrations by HPLC with fluorescence detection. In kind it is in vivo, human. The settings on record: for Kp at 28 day / concentration at 28 day: human, oral, 10 subjects; for Kp at 28 day: tumour tissue / plasma, 75 mg three times a day; for Kp at 28 day / Tissue/plasma ratios: tumour tissue to plasma; for concentration at 28 day / Tissue concentrations: tumour tissue, about 1 month of 75 mg tid; for concentration at 28 day: 75 mg tid; for Tissue/plasma ratios / Tissue concentrations: individual subjects. How it is done:
as §1

On the set-up of data set [3]: method as in Propper et al, 2001. As to conditions: Phase I trial, oral; ref Propper et al, 2001; cited from earlier work.
For a further data set, the system named is PKC isotypes. As to conditions: metabolites, compared with parent drug; no reference given; read-out: IC50 against PKC isotypes; cited from earlier work.
Setting [4] is: read-out: Plasma concentrations, maximum.
[5] abbreviates: read-out: Plasma concentrations, mean.
The mark [6] stands for this setting: read-out: Plasma concentrations, median.
Where [7] appears, read: read-out: Plasma concentrations, minimum.
The mark [8] stands for this setting: read-out: Tissue/plasma ratios, maximum.
Where [9] appears, read: read-out: Tissue/plasma ratios, mean.
Setting [10] is: read-out: Tissue/plasma ratios, median.
The mark [11] stands for this setting: read-out: Tissue/plasma ratios, minimum.
Setting [12] is: read-out: Tissue concentrations, maximum.
[13] abbreviates: read-out: Tissue concentrations, mean.
[14] abbreviates: read-out: Tissue concentrations, median.
Setting [15] is: read-out: Tissue concentrations, minimum.

Structures are written as SMILES. Where “and” joins values, the source holds several entries; their conditions need not be identical. Identical values can stand only once. Like-named read-outs stand apart in the source and are kept apart here.

Turning to `CO[C@@H]1[C@H](N(C)C(=O)c2ccccc2)C[C@H]2O[C@]1(C)n1c3ccccc3c3c4c(c5c6ccccc6n2c5c31)C(=O)NC4O` (single isomer, unassigned) [CGP52421 (e2)], the concentration at 28 day worked out at 22.4 µM in data set [1] (setting [4]); 17.3 µM in data set [1] (setting [5]); 18.4 µM in data set [1] (setting [6]); 10.8 µM in data set [1] (setting [7]); 3.21 µM in data set [2] (setting [12]); 1.51 µM in data set [2] (setting [13]). Also, the concentration at 28 day was 1.52 µM in data set [2] (setting [14]) and 0.635 µM in data set [2] (setting [15]). Moreover, the Plasma concentrations in data set [1] was 19.151 µM and 16.633 µM and 11.311 µM and 18.383 µM and 19.519 µM and 18.475 µM and 22.448 µM and 13.352 µM and 10.767 µM and 15.869 µM and 20.34 µM and 20.944 µM. Also, the Kp at 28 day worked out at 0.153 in data set [2] (setting [8]), 0.085 in data set [2] (setting [9]), 0.083 in data set [2] (setting [10]) and 0.033 in data set [2] (setting [11]). Moreover, in data set [2], the Tissue/plasma ratios was 0.03 and 0.09 and 0.07 and 0.06 and 0.12 and 0.08 and 0.11 and 0.05 and 0.15. The Tissue concentrations in data set [2] was 635 nM and 1528 nM and 789 nM and 1031 nM and 2367 nM and 1569 nM and 1503 nM and 776 nM and 1644 nM and 3212 nM. Also, in data set [3], the “Estimated median elimination t1/2” value is given as 36 days.

Take `CO[C@@H]1[C@H](N(C)C(=O)c2ccccc2)C[C@H]2O[C@]1(C)n1c3ccccc3c3c4c(c5c6ccccc6n2c5c31)C(=O)N[C@H]4O` [CGP52421]: the values for the concentration at 28 day in data set [1] (setting [6]) and in data set [2] (setting [14]) were 18.4 µM and 1.52 µM, respectively. In the data set with PKC isotypes, the IC50 was 50 nM. Moreover, the Kp at 28 day in data set [2] (setting [10]) is 0.083.

With `CN(C(=O)c1ccccc1)[C@@H]1C[C@H]2O[C@@](C)([C@@H]1O)n1c3ccccc3c3c4c(c5c6ccccc6n2c5c31)C(=O)NC4` [CGP 62221], the concentration at 28 day amounted to 10.1 µM in data set [1] (setting [4]); 5.36 µM in data set [1] (setting [5]); 5.43 µM in data set [1] (setting [6]); 2.47 µM in data set [1] (setting [7]); 2.35 µM in data set [2] (setting [12]); 0.99 µM in data set [2] (setting [13]). In addition, the concentration at 28 day in data set [2] (setting [14]) stood at 0.71 µM; in data set [2] (setting [15]), 0.175 µM. Besides, the Plasma concentrations in data set [1] was 4.66 µM and 3.227 µM and 2.474 µM and 7.205 µM and 5.723 µM and 6.061 µM and 10.132 µM and 2.995 µM and 5.761 µM and 5.28 µM and 5.265 µM and 5.586 µM. In the data set with PKC isotypes, the IC50 is 120 nM. Further, the Kp at 28 day amounted to 0.42 in data set [2] (setting [8]), 0.21 in data set [2] (setting [9]), 0.2 in data set [2] (setting [10]) and 0.04 in data set [2] (setting [11]). For the same molecule, the Tissue/plasma ratios in data set [2] is 0.04 and 0.19 and 0.21 and 0.11 and 0.35 and 0.34 and 0.12 and 0.22 and 0.42. Moreover, the Tissue concentrations in data set [2] is 175 nM and 609 nM and 523 nM and 759 nM and 2006 nM and 661 nM and 1022 nM and 651 nM and 1143 nM and 2353 nM.

(Values after publication PMC2360547 (British Journal of Cancer, 2006).)
